Laboratory results: ChEMBL document CHEMBL4130530, “Lucky Switcheroo: Dramatic Potency and Selectivity Improvement of Imidazoline Inhibitors of Human Carbonic Anhydrase VII” (ACS Med Chem Lett, 2017)

Key:
[1] = target: Carbonic anhydrase 2 (Homo sapiens, UniProt P00918); assay: Inhibition of recombinant human carbonic anhydrase 2 incubated for 15 mins prior to testing measured for 10 to 100 secs by phenol red based stopped-flow CO2 hydration assay
[2] = target: Carbonic anhydrase 1 (Homo sapiens, UniProt P00915); assay: Inhibition of recombinant human carbonic anhydrase 1 incubated for 15 mins prior to testing measured for 10 to 100 secs by phenol red based stopped-flow CO2 hydration assay
Chain of Carbonic anhydrase 1 (P00915 whole entry): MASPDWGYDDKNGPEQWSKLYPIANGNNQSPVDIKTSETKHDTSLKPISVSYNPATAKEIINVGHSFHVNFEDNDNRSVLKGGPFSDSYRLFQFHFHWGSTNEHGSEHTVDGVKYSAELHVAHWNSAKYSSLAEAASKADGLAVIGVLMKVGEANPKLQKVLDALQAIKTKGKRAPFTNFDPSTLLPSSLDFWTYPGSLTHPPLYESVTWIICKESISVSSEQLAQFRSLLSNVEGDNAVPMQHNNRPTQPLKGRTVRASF

[3] = target: Carbonic anhydrase 7 (Homo sapiens, UniProt P43166); assay: Inhibition of recombinant human carbonic anhydrase 7 incubated for 15 mins prior to testing measured for 10 to 100 secs by phenol red based stopped-flow CO2 hydration assay
Chain of Carbonic anhydrase 7 (P43166 whole entry): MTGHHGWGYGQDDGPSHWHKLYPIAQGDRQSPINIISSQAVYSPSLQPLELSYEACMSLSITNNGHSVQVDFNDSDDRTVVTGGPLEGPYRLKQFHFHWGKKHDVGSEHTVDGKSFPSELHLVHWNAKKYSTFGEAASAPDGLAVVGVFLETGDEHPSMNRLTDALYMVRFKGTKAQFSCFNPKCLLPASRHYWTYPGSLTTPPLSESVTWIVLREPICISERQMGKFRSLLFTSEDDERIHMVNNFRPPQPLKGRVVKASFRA

[4] = target: Carbonic anhydrase 4 (Homo sapiens, UniProt P22748); assay: Inhibition of recombinant human carbonic anhydrase 4 incubated for 15 mins prior to testing measured for 10 to 100 secs by phenol red based stopped-flow CO2 hydration assay
Chain of Carbonic anhydrase 4 (P22748 whole entry): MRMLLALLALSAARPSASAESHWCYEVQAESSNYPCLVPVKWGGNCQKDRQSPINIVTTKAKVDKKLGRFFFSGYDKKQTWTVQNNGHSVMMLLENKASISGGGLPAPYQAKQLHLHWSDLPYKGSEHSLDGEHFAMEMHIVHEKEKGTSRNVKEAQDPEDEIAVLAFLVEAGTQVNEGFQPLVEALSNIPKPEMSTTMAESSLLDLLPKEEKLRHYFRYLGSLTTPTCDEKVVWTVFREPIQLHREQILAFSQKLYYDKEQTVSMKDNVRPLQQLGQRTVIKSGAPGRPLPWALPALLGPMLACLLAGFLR

Row | Structure (SMILES) | Ki [1] [nM] | Ki [2] [nM] | Ki [3] [nM] | Ki [4] [nM]
1 | CCOc1ccccc1N1CCN=C1c1ccc(S(N)(=O)=O)cc1 | 866 | – | – | –
2 | NS(=O)(=O)c1ccc(C2=NCCN2c2cncnc2)cc1 | 703 | – | – | –
3 | COc1ccc(N2CCN=C2c2ccc(S(N)(=O)=O)cc2)cc1OC | 724 | – | – | –
4 | Cc1ccccc1N1CCN=C1c1ccc(S(N)(=O)=O)cc1 | 61.7 | – | – | –
5 | NS(=O)(=O)c1ccc(C2=NCCN2c2ccccc2)cc1 | 376 | – | – | –
6 | NS(=O)(=O)c1ccc(C2=NCCN2c2cccnc2)cc1 | 848 | – | – | –

More lines, now with the values ahead:

Row | Ki [1] [nM] | Ki [2] [nM] | Ki [3] [nM] | Ki [4] [nM] | Structure (SMILES)
7 | 46.7 | 960 | 269 | 8140 | NS(=O)(=O)c1ccc(N2CCN=C2c2ccc(Cl)cc2)cc1
8 | 742 | – | – | – | NS(=O)(=O)c1ccc(C2=NCCN2c2ccc(F)cc2)cc1
9 | 76.1 | 2340 | 303 | 9730 | NS(=O)(=O)c1ccc(N2CCN=C2c2ccc(F)cc2)cc1
10 | 182 | – | – | – | NS(=O)(=O)c1ccc(C2=NCCN2c2ccc(Cl)cc2)cc1
11 | 53.3 | – | – | – | COc1ccc(N2CCN=C2c2ccc(S(N)(=O)=O)cc2)cc1
